Laboratory results published in PubChem BioAssay AID330 (DTP/NCI, 2004).
Several values for one entry are separate records, joined by “and”; a condition that tells them apart may be missing. Equal entries are not always repeated. Toxic doses and inconclusive results are not listed. Rule for the calls: active = survival T/C of 150% or more; inactive = T/C below 125% in these data.

Test system: P388 leukemia ip, CD2F1 mice, survival T/C
Assay: NCI In Vivo Anticancer Drug Screen. Data for tumor model P388 Leukemia (intraperitoneal) in CD2F1 (CDF1) mice
Details: endpoint: median survival time, higher = longer survival
Summary of the method: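 Mice carrying the transplanted tumor received test compound or vehicle. Survival was recorded in each group, and the value is the treated-group measurement divided by that of the vehicle-treated control group.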

[1] = dose: 50.0 mg/kg/injection, schedule: Q01DX005 (ip), vehicle: saline with Tween-80
[2] = dose: 100.0 mg/kg/injection, schedule: Q01DX005 (ip), vehicle: saline with Tween-80
[3] = dose: 200.0 mg/kg/injection, schedule: Q01DX005 (ip), vehicle: saline with Tween-80

Measured: T/C

Nc1nc2cc([N+](=O)[O-])cnc2s1
inactive: dose: 100.0 mg/kg/injection, schedule: Q04DX003 (ip), vehicle: Klucel (hydroxypropylcellulose) (HPC) 103 % of control | dose: 200.0 mg/kg/injection, schedule: Q04DX003 (ip), vehicle: Klucel (hydroxypropylcellulose) (HPC) 101 % of control | dose: 400.0 mg/kg/injection, schedule: Q04DX003 (ip), vehicle: Klucel (hydroxypropylcellulose) (HPC) 100 % of control

C[N+](C)(C)CCC[n+]1ccc(CCn2ccc3ccccc32)cc1
inactive: dose: 25.0 mg/kg/injection, schedule: Q01DX001 (ip), vehicle: saline 93 % of control | dose: 50.0 mg/kg/injection, schedule: Q01DX001 (ip), vehicle: saline 92 % of control | dose: 100.0 mg/kg/injection, schedule: Q01DX001 (ip), vehicle: saline 102 % of control

CC(C)=CCC(OC(=O)C=C(C)C)C1=CC(=O)c2c(O)ccc(O)c2C1=O (configuration not stated)
inactive: dose: 1.56 mg/kg/injection, schedule: Q01DX009 (ip), vehicle: water 108 % of control | dose: 3.12 mg/kg/injection, schedule: Q01DX009 (ip), vehicle: water 107 % of control | dose: 6.25 mg/kg/injection, schedule: Q01DX009 (ip), vehicle: water 117 % of control | dose: 10.0 mg/kg/injection, schedule: Q01DX009 (ip), vehicle: saline with Tween-80 110 % of control | dose: 10.0 mg/kg/injection, schedule: Q04DX003 (ip), vehicle: saline with Tween-80 109 % of control | dose: 12.5 mg/kg/injection, schedule: Q01DX009 (ip), vehicle: water 119 % of control | dose: 20.0 mg/kg/injection, schedule: Q01DX009 (ip), vehicle: saline with Tween-80 110 % of control | dose: 20.0 mg/kg/injection, schedule: Q04DX003 (ip), vehicle: saline with Tween-80 90 % of control | dose: 40.0 mg/kg/injection, schedule: Q04DX003 (ip), vehicle: saline with Tween-80 104 % of control

O=C1C(N=Nc2ccccc2)C(O)N(c2ccc(Cl)cc2)C(=S)N1c1cccc(Cl)c1Cl (configuration not stated)
inactive: dose: 100.0 mg/kg/injection, schedule: Q04DX002 (ip), vehicle: Klucel (hydroxypropylcellulose) (HPC) 100 % of control | dose: 200.0 mg/kg/injection, schedule: Q04DX002 (ip), vehicle: Klucel (hydroxypropylcellulose) (HPC) 100 % of control | dose: 400.0 mg/kg/injection, schedule: Q04DX002 (ip), vehicle: Klucel (hydroxypropylcellulose) (HPC) 99 % of control

O=C(O)CC1SC2(C(=O)N(Cc3ccccc3)c3ccccc32)N(c2ccccc2)C1=O (configuration not stated)
inactive: [1] 89 % of control | [2] 95 % of control | [3] 89 % of control

CC1=C(C)C(=O)O[C@@H]([C@](C)(O)[C@]2(O)CC[C@@]3(O)[C@@H]4C[C@H]5O[C@]56[C@@H](O)C=CC(=O)[C@]6(C)[C@H]4CC[C@]23C)C1
inactive: dose: 1.0 mg/kg/injection, schedule: Q01DX005 (ip), vehicle: distilled water + Tween-80 108 % of control | dose: 2.0 mg/kg/injection, schedule: Q01DX005 (ip), vehicle: distilled water + Tween-80 122 % of control | dose: 4.0 mg/kg/injection, schedule: Q01DX005 (ip), vehicle: distilled water + Tween-80 111 % of control and 113 % of control | dose: 4.0 mg/kg/injection, schedule: Q01DX005 (ip), vehicle: saline 122 % of control | dose: 8.0 mg/kg/injection, schedule: Q01DX005 (ip), vehicle: distilled water + Tween-80 108 % of control and 113 % of control | dose: 16.0 mg/kg/injection, schedule: Q01DX005 (ip), vehicle: distilled water + Tween-80 116 % of control | dose: 16.0 mg/kg/injection, schedule: Q01DX005 (ip), vehicle: saline 122 % of control | dose: 16.0 mg/kg/injection, schedule: Q01DX009 (ip), vehicle: saline 93 % of control | dose: 32.0 mg/kg/injection, schedule: Q01DX009 (ip), vehicle: saline 114 % of control

C/C=C/C(O)CC1CCCCN1 (configuration not stated)
inactive: dose: 100.0 mg/kg/injection, schedule: Q04DX003 (ip), vehicle: saline 100 % of control

COc1ccc2c(c1OC)CC(C(=O)O)=C2C
inactive: [1] 99 % of control | [2] 94 % of control | [3] 99 % of control

O=[N+]([O-])c1ccc(CS(=O)(=O)C(Cl)(Cl)Cl)o1
inactive: dose: 6.25 mg/kg/injection, schedule: Q01DX009 (ip), vehicle: saline 108 % of control and 112 % of control and 87 % of control | dose: 50.0 mg/kg/injection, schedule: Q01DX009 (ip), vehicle: suspension in saline 86 % of control | dose: 200.0 mg/kg/injection, schedule: Q01DX009 (ip), vehicle: suspension in saline 86 % of control
